Series [1] can be described thus: CNS penetration: CSF to plasma unbound concentration ratio in rat. As to conditions: CSF and plasma (unbound), iv; for Kp uu at 0.25 h: 15 minutes after intravenous administration, CCSF/Cplasma,u, read-out: Kp,uu,CSF,iv15min. The format is in vivo. As to the method: Test Example 4 Test for Evaluating CNS Penetration
(1) Measurement of Unbound Fraction (fp) in Rat Plasma
A test compound (100 μg/mL, 50% acetonitrile solution) at 1% (v/v) with respect to the amount of the plasma was added to rat plasma, and dispensed to a sample for a supernatant and a sample for the plasma. The sample for a supernatant was ultracentrifuged at 436,000×g and 37° C. for 140 minutes, and the sample for the plasma was incubated at 37° C. for 140 minutes.
After 140 minutes, the sample for a supernatant after the ultracentrifugation and the sample for the plasma were taken, and mixed with the blank plasma or the blank supernatant, respectively. Acetonitrile including an internal standard material was added to each of the samples, and after the centrifugation at 2150×g and 4° C. for 10 minutes the supernatant was injected into LC-MS/MS.
The unbound fraction in the plasma was calculated by the following equation.
(wherein fp: an unbound fraction in the plasma and D: a dilution rate of the plasma. fu,app=peak area ratio of supernatant sample/peak area ratio of the plasma sample, and peak area ratio=peak area of test compound/peak area of internal standard material).
(2) The CSF to Plasma Unbound Concentration Ratio in Rat
A 50% acetonitrile solution and an acetonitrile including internal standard material was added to the collected plasma or CSF. After centrifugation at 4° C. and 2150×g for 10 minutes, the supernatant was injected into LC-MS/MS, and the total concentration of the test compound in the plasma (Cplasma,t) and the concentration of the test compound in CSF (CCSF) were obtained. The unbound concentration in the plasma (Cplasma,u) of the test compound and the CSF-to plasma unbound concentration ratio (Kp,uu,CSF) of the test compound was calculated by the following equation.
(§1) Ex represents Example No. of the test compound.

Another series deals with isolated urethra. In words: Isolated urethra contractile action. Also on record: species or system rat. Conditions: for activation at 1 µM: test compound at 1 μM, contractile response by 10 μM phenylephrine as 100%, SD female rat urethra, read-out: Isolated urethra contraction (%). As for the experimental part: Test Example 2 Isolated Urethra Contractile Action
(1) Evaluation Test on Urethra Contractile Action of Test Compound Using Isolated Urethra
The urethra was isolated from an SD female rat having a body weight of 100 to 500 g. The isolated urethra was incised longitudinally to give a rectangular strip specimen having a width of about 3 mm, which was suspended in the circular muscle direction in 10 mL of a tissue bath filled with a Krebs-Henseleit solution (pH 7.4). The Krebs-Henseleit solution was bubbled with 95% O2 and 5% CO2, and kept at 37° C. The resting tension was set to 0.5 g to record the isometric contraction. After the resting tension was stabilized, contraction was elicited by the addition of 10 μM phenylephrine. After washing and stabilizing, the test compound was added cumulatively to a final concentration of −12 to −5 log M to measure a contractile response. By taking the contractile response by 10 μM phenylephrine as 100%, the ratio of the contractile response in the concentration of the test compound at 1 μM was calculated.
as §1

The subject of a further series is urethral pressure. In words: Effect of test compound on urethral pressure in anesthetized rats. The format is in vivo, rat. Conditions: for Increment value in the urethra pressures (mmHg): 0.1 mg/kg intravenously, urethane-anesthetized SD female rats; for urethra pressure increasing action: dose of 0.1 mg/kg. The text has this:
Test Example 3 Test to Evaluate Effect of Test Compound on Urethral Pressure
It has been reported that an increase in the urethra pressure is useful for the treatment of urinary incontinence, particularly stress urinary incontinence (for example, Drugs, 64, 14, 1503-1516 (2004)). In order to confirm whether the compound of the present invention increases the urethra pressure and thus is useful for the treatment of urinary incontinence, particularly stress urinary incontinence, the following tests were carried out.
SD female rats were anesthetized with urethane and subjected to laparotomy. Then, the bladder apex was incised and a catheter was inserted from the bladder apex. Further, the catheter tip was ligated and fixed to be located in the proximal urethra portion. The catheter was connected to a pressure transducer and an infusion pump. Further, a catheter for administrating the compound was fitted into the femoral vein. Physiological saline was continuously infused into the urethra and the perfusion pressure in the urethra was measured. After the urethral pressure was stabilized, the test compound that had been dissolved in physiological saline, or physiological saline including 5% dimethylacetamide and 0.5% Cremophor was administered intravenously at 0.1 mg/kg, and a change in urethral pressures was measured.
Further, the results of administering an active metabolite of midodrine (ST-1059: purchased from CHEMIZON) (J. Urology, 118, 980-982 (1977)) which is an α1 adrenoceptor agonist and has an effect on stress urinary incontinence in rat doses (0.01 mg/kg) presumed to correspond to the clinical doses are referenced and shown in the Tables below. The increment value in the urethra pressures of ramelteon and the Example compounds of the present invention at the time of administration are shown in Table 4. Ex represents Example No. of the test compound.

A further series has as its target human MT1 receptor (Homo sapiens, UniProt P48039). In words: Activation of human MT1 receptor in receptor-expressing HEK293 cells (intracellular Ca2+, FLIPR). Conditions: for Emax: HEK293, maximum reaction by ramelteon taken as 100%, solvent only 0%, read-out: MT1 Emax (%); for EC50: HEK293 cells stably expressing human MT1 and Gq/i chimeric G-protein, intracellular Ca2+ by FLIPR. The format is cell-based. As for the experimental part:
(1) Isolation of Human MT1 and MT2 Receptor and Construction of Expression Vector
A human MT1 receptor gene (GenBank Accession No.: NM_005958.3) and a human MT2 receptor gene (GenBank Accession No.: NM_005959.3) were each introduced into an expression vector pCDNA3.1/Zeo (Invitrogen, Inc.).
(2) Construction of Cells Stably Expressing Human MT1 and Human MT2 Receptor
The introduction was carried out according to the attached instructions, using a Lipofectoamine (registered trademark) 2000 Reagent (Invitrogen, Inc.). Zeocin and hygromycin were used as a resistant drug, and the cell was incubated for 15 days at 0.02 mg/mL and 0.05 mg/mL, respectively, thereby acquiring drug-resistant clones.
(3) Measurement of Intracellular Ca^2+ Concentration by FLIPR (Registered Trademark)
The respective stably expressing cells were dispensed into 96-well poly-D-lysine-coated plates (Falcon Co.) to 40,000 cells/well the day before the experiment, and incubated overnight in a DMEM (Invitrogen, Inc.) medium including 10% FBS at 37° C. and 5% CO2. The medium was replaced with a loading buffer (washing solution (Hank's balanced salt solution (HBSS), 20 mM HEPES-NaOH, 2.5 mM probenecid) including Fluo-4AM (Dojindo Co.) at 4 μM), and incubated for 1 hour at 37° C. and 5% CO2. Thereafter, the cells were washed with a plate washer (ELx405, BIO-TEK Instrument, Inc.) set with the washing solution, and set in an intracellular Ca^2+ concentration measuring systems (FLIPR (registered trademark), Molecular Device Co.). The test compound was dissolved in the washing solution in advance, diluted to a final concentration of −12 to −5 log M, set in a FLIPR (registered trademark) device together with the cells, and added to the cells in the device. At this time, a change in the intracellular Ca^2+ concentrations was measured.
as §1

Chain of human MT1 receptor (P48039 whole entry): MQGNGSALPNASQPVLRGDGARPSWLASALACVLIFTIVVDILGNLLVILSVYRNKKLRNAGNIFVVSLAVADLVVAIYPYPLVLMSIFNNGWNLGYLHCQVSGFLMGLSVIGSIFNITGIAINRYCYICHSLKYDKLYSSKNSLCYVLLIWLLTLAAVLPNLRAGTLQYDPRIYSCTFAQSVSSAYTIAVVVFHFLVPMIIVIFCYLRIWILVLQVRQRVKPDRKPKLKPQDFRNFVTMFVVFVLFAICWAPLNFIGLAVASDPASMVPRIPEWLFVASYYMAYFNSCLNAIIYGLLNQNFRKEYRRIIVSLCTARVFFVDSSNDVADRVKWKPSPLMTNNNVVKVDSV

Usually Emax stands for the greatest response seen or fitted, relative to the assay's reference. In general, EC50 refers to the concentration at which the effect is half-maximal. High values mean a less potent agent, low ones a more potent agent. Turning to `CNC(=O)c1[nH]c2ccc(OC)cc2c1CCNC(=O)C(F)F` [Ex 2, 3-{2-[(difluoroacetyl)amino]ethyl}-5-methoxy-N-methyl-1H-indole-2-carboxamide], the Kp uu at 0.25 h in series [1] turned out to be 0.11. Further, the activation at 1 µM in the series with isolated urethra amounted to 167%. Moreover, the “Increment value in the urethra pressures (mmHg)” value (“Increment value … (mmHg)” below) in the series with urethral pressure came to 10.6 ± 3.5 mmHg. The “urethra pressure increasing action” value in the series on urethral pressure (in words) is recorded as “good urethra pressure increasing action”. Further, on human MT1 receptor, the Emax was determined as 102% and the EC50 worked out at 0.011 µM.
For `CNC(=O)c1[nH]c2cc(F)c(OC)cc2c1CCNC(C)=O` [Ex 17], in series [1], the Kp uu at 0.25 h amounted to 0.08. Moreover, the activation at 1 µM in the series with isolated urethra stood at 132%. Moreover, the “Increment value … (mmHg)” value in the series on urethral pressure worked out at 9.0 ± 1.0 mmHg. Also, the “urethra pressure increasing action” value with urethral pressure (in words) was “good urethra pressure increasing action”. Further, at human MT1 receptor, the Emax is 86% and the EC50 is 0.02 µM.
For the molecule `CCC(=O)NCC[C@@H]1CCc2ccc3c(c21)CCO3` [Ramelteon, reference compound], the Kp uu at 10 min in series [1] (10 minutes after the intravenous administration) was above 1. Also, the urethra contractile action entry in the series with isolated urethra (isolated rat urethra, in words) was “good urethra contractile action”. Moreover, the activation at 1 µM with isolated urethra stood at 242%. In the series with urethral pressure (0.1 mg/kg i.v. versus ST-1059 0.01 mg/kg, in words), the “increment value in the urethra pressures compared with ST-1059” value is reported as “equal to or more than that of ST-1059”. Also, the “Increment value … (mmHg)” value in the series with urethral pressure was found to be 11.1 ± 1.7 mmHg. For the same molecule, on human MT1 receptor, the Emax was 100% and the EC50 worked out at 0.00028 µM.

For the origin of these results see US9376449B2, “Indole carboxamide derivative” (Astellas Pharma Inc., priority 2012, dated 2016).
